One block for each molecule: values may come before it.
Legend:
Format in all cases: biochemical
Rabbit LDL = test: Amount of TBARS (Cu^2+-induced oxidation of rabbit LDL); details: 5 μM Cu^2+
Procedure: Rabbit LDL was prepared in accordance with the method of Havel et al. [Havel, R. J. et al., J. Clin. Invest., 34, (1955)]. After adding 5 μM of Cu^2+, the mixture was warmed until a thiobarbituric acid reactive substance (TBARS) was produced. The test compounds were evaluated for their anti-oxidative action with the amount of TBARS being used as an index. [formula]

[1] = tested on: xanthine oxidase (XOD)-hypoxanthine (HX) system (superoxide); test: Xanthine oxidase system (superoxide generating system); details: pH 7.4, 37° C.
Procedure: The test compounds were evaluated under the following conditions for their effect in a reaction due to a xanthine oxidase (XOD)-hypoxanthine (HX) system in aqueous solution.
Xanthine oxidase 0.1 U/ml
Hepes buffer solution (pH 7.4)
A reaction solution was prepared by mixing hypoxanthine and luminol in the Hepes buffer solution and stored in ice until use. After warming the reaction solution at 37° C. for about 10 min, the reaction was started by addition of the xanthine oxidase solution. A measurement was started right after the addition of xanthine oxidase and subsequent stirring; chemiluminescence intensity was normally measured right after the start of the reaction. In the experimental model, luminol-dependent chemiluminescence induced by superoxide generated by enzymatic reaction of xanthine oxidase was detected, thus enabling the measurement of the reactivity with superoxide.

[2] = biological target: lipid peroxidation due to the autoxidation of linoleic acid; test: Linoleic acid-MCLA system, Test Case 4; details: linoleic acid 10 mM, MCLA 2 μM, 1-butanol, 37° C.; read-out: 50% inhibition concentration
Procedure: The test compounds were evaluated for their inhibitory effect against lipid peroxidation due to the autoxidation of linoleic acid.
A reaction solution was prepared by mixing linoleic acid and MCLA (2-methyl-6-(p-methoxyphenyl)-3,7-dihydroimidazo[1,2-a]pyrazin-3-one) in 1-butanol and stored in ice until use. An amount of this reaction solution was sampled in a chemiluminescence measuring cell and, immediately thereafter, the intensity of chemiluminescence due to the autoxidation of linoleic acid was measured at 37° C. in a thermostatic bath. A normal chemiluminescence intensity measurement was conducted about 2-4 min later when the chemiluminescence substantially peaked.

Chemiluminescence intensity (% of control) ([1]; at 20 μM of compound): 94.2 % of control
Chemiluminescence intensity (% of control) ([1]; at 200 μM of compound): 110.2 % of control
Compound: CCCCCCCCC1(CCCCCCCC)Cc2c(cc(C(C)(C)C)c(O)c2C(C)(C)C)O1 [Compound y, 4,6-Di-tert-Butyl-2,2-Di-n-Octyl-5-Hydroxy-2,3-Dihydrobenzofuran]
TBARS produced (%) (Rabbit LDL; at 10^-5 M of compound, 10 µM): 72.3%
TBARS produced (%) (Rabbit LDL; at 10^-6 M of compound, 1 µM): 85.4%

Compound: CC(C)(C)c1cc2c(cc1O)CC(C(C)(C)C)O2 (stereo not shown) [Comparison 4, reference compound]
IC50 [2]: 42 µM

Compound: CC(C)C1(C(C)C)Cc2c(cc(C(C)(C)C)c(O)c2C(C)(C)C)O1 [Compound i, 4,6-Di-tert-Butyl-2,2-Di-i-Propyl-5-Hydroxy-2,3-Dihydrobenzofuran]
TBARS produced (%) (Rabbit LDL; at 10^-5 M of compound, 10 µM): 10.3%
TBARS produced (%) (Rabbit LDL; at 10^-6 M of compound, 1 µM): 90.8%

Chemiluminescence intensity (% of control) ([1]; at 20 μM of compound): 91.0 % of control
Chemiluminescence intensity (% of control) ([1]; at 200 μM of compound): 102.4 % of control
Compound: CCCCC1(CCCC)Cc2c(cc(C(C)(C)C)c(O)c2C(C)(C)C)O1 [Compound f, 4,6-Di-tert-Butyl-2,2-Di-n-Butyl-5-Hydroxy-2,3-Dihydrobenzofuran]
TBARS produced (%) (Rabbit LDL; at 10^-5 M of compound, 10 µM): 12.2%
TBARS produced (%) (Rabbit LDL; at 10^-6 M of compound, 1 µM): 81.6%
IC50 [2]: 8 µM

Compound: CCCOc1cc(C(C)(C)C)c(O)c(C(C)(C)C)c1C [Compound u, 2,6-Di-tert-Butyl-3-Methyl-4-Propyloxyphenol]
TBARS produced (%) (Rabbit LDL; at 10^-5 M of compound, 10 µM): 47.3%
TBARS produced (%) (Rabbit LDL; at 10^-6 M of compound, 1 µM): 87.7%

Compound: Cc1c(OCCCOc2cc(C(C)(C)C)c(O)c(C(C)(C)C)c2C)cc(C(C)(C)C)c(O)c1C(C)(C)C [Compound w, 1,3-Bis(3,5-Di-tert-Butyl-4-Hydroxy-2-Methylphenoxy)propane]
TBARS produced (%) (Rabbit LDL; at 10^-5 M of compound, 10 µM): 17.2%
TBARS produced (%) (Rabbit LDL; at 10^-6 M of compound, 1 µM): 71.3%

Compound: CC(C)(C)c1c(O)ccc2c1CC(CO)O2 (stereo not shown) [Comparison 3, reference compound]
IC50 [2]: 54 µM

Compound: CCC1(CC)Cc2c(cc(C(C)(C)C)c(O)c2C(C)(C)C)O1 [Compound d, 4,6-Di-tert-Butyl-2,2-Diethyl-5-Hydroxy-2,3-Dihydrobenzofuran]
TBARS produced (%) (Rabbit LDL; at 10^-5 M of compound, 10 µM): 9.4%
TBARS produced (%) (Rabbit LDL; at 10^-6 M of compound, 1 µM): 76.9%

Compound: Cc1cc2c(C(C)(C)C)c(O)c(C(C)(C)C)cc2o1 [Compound s, 4,6-Di-tert-Butyl-5-Hydroxy-2-Methylbenzofuran]
TBARS produced (%) (Rabbit LDL; at 10^-5 M of compound, 10 µM): 39.2%
TBARS produced (%) (Rabbit LDL; at 10^-6 M of compound, 1 µM): 75.7%

Compound: CC(C)(C)c1cc2c(c(C(C)(C)C)c1O)CC(C(C)(C)C)O2 (stereo not shown) [Compound h, 2,4,6-Tri-tert-Butyl-5-Hydroxy-2,3-Dihydrobenzofuran]
TBARS produced (%) (Rabbit LDL; at 10^-5 M of compound, 10 µM): 10.6%
TBARS produced (%) (Rabbit LDL; at 10^-6 M of compound, 1 µM): 74.0%
IC50 [2]: 9 µM

Chemiluminescence intensity (% of control) ([1]; at 20 μM of compound): 84.5 % of control
Chemiluminescence intensity (% of control) ([1]; at 200 μM of compound): 85.6 % of control
Compound: CCCCCC1(CCCCC)Cc2c(cc(C(C)(C)C)c(O)c2C(C)(C)C)O1 [Compound x, 4,6-Di-tert-Butyl-2,2-Di-n-Pentyl-5-Hydroxy-2,3-Dihydrobenzofuran]
TBARS produced (%) (Rabbit LDL; at 10^-5 M of compound, 10 µM): 42.1%
TBARS produced (%) (Rabbit LDL; at 10^-6 M of compound, 1 µM): 96.3%
IC50 [2]: 5 µM

Compound: CC(C)(C)c1cc2c(c(C(C)(C)C)c1O)CC(CCl)O2 (stereo not shown) [l, 4,6-tert-Butyl-2-Chloromethyl-5-Hydroxy-2,3-Dihydrobenzofuran]
TBARS produced (%) (Rabbit LDL; at 10^-5 M of compound, 10 µM): 8.1%
TBARS produced (%) (Rabbit LDL; at 10^-6 M of compound, 1 µM): 11.5%

Compound: CCCC1(CCC)Cc2c(cc(C(C)(C)C)c(O)c2C(C)(C)C)O1 [Compound e, 4,6-Di-tert-Butyl-2,2-Di-n-Propyl-5-Hydroxy-2,3-Dihydrobenzofuran]
TBARS produced (%) (Rabbit LDL; at 10^-5 M of compound, 10 µM): 13.5%
TBARS produced (%) (Rabbit LDL; at 10^-6 M of compound, 1 µM): 86.3%

Compound: CC1Cc2c(cc(C(C)(C)C)c(O)c2C(C)(C)C)O1 (stereo not shown) [Compound b, 4,6-Di-tert-Butyl-5-Hydroxy-2-Methyl-2,3-Dihydrobenzofuran]
TBARS produced (%) (Rabbit LDL; at 10^-5 M of compound, 10 µM): 8.9%
TBARS produced (%) (Rabbit LDL; at 10^-6 M of compound, 1 µM): 53.8%

Compound: CC(C)(C)c1cc2c(c(C(C)(C)C)c1O)CC(Cc1ccccc1)(Cc1ccccc1)O2 [Compound k, 4,6-Di-tert-Butyl-2,2-Dibenzyl-5-Hydroxy-2,3-Dihydrobenzofuran]
TBARS produced (%) (Rabbit LDL; at 10^-5 M of compound, 10 µM): 11.1%
TBARS produced (%) (Rabbit LDL; at 10^-6 M of compound, 1 µM): 93.0%

Compound: CC(C)(C)c1cc2occc2c(C(C)(C)C)c1O [Compound r, 4,6-Di-tert-Butyl-5-Hydroxybenzofuran]
TBARS produced (%) (Rabbit LDL; at 10^-5 M of compound, 10 µM): 30.1%
TBARS produced (%) (Rabbit LDL; at 10^-6 M of compound, 1 µM): 74.2%

Compound: CC1(C)Cc2c(cc(C(C)(C)C)c(O)c2C(C)(C)C)O1 [Compound c, 5-Hydroxy-4,6-Di-tert-Butyl-2,2-Dimethyl-2,3-Dihydrobenzofuran]
TBARS produced (%) (Rabbit LDL; at 10^-5 M of compound, 10 µM): 9.2%
TBARS produced (%) (Rabbit LDL; at 10^-6 M of compound, 1 µM): 55.3%
IC50 [2]: 7 µM

Compound: CC(C)(C)c1cc2c(c(C(C)(C)C)c1O)CC1(CCCCCCC1)O2 [Compound p, 4,6-Di-tert-Butyl-5-Hydroxy-2,3-Dihydrobenzofuran-2-Spiro-1'-Cyclooctane]
TBARS produced (%) (Rabbit LDL; at 10^-5 M of compound, 10 µM): 22.0%
TBARS produced (%) (Rabbit LDL; at 10^-6 M of compound, 1 µM): 91.8%

Compound: CC(C)(C)c1cc2c(c(C(C)(C)C)c1O)CC1(CCCCCC1)O2 [Compound o, 4,6-Di-tert-Butyl-5-Hydroxy-2,3-Dihydrobenzofuran-2-Spiro-1'-Cycloheptane]
TBARS produced (%) (Rabbit LDL; at 10^-5 M of compound, 10 µM): 9.0%
TBARS produced (%) (Rabbit LDL; at 10^-6 M of compound, 1 µM): 91.2%

Chemiluminescence intensity (% of control) ([1]; at 20 μM of compound): 99.2 % of control
Chemiluminescence intensity (% of control) ([1]; at 200 μM of compound): 107.5 % of control
Compound: CC(C)CCC1(CCC(C)C)Cc2c(cc(C(C)(C)C)c(O)c2C(C)(C)C)O1 [Compound z, 2,2-Diisoamyl-4,6-Di-tert-Butyl-5-Hydroxy-2,3-Dihydrobenzofuran]
TBARS produced (%) (Rabbit LDL; at 10^-5 M of compound, 10 µM): 22.9%
TBARS produced (%) (Rabbit LDL; at 10^-6 M of compound, 1 µM): 77.5%
IC50 [2]: 6 µM

Compound: CC(C)(C)c1cc2c(c(C(C)(C)C)c1O)CC(c1ccccc1)(c1ccccc1)O2 [Compound j, 4,6-Di-tert-Butyl-2,2-Diphenyl-5-Hydroxy-2,3-Dihydrobenzofuran]
TBARS produced (%) (Rabbit LDL; at 10^-5 M of compound, 10 µM): 11.6%
TBARS produced (%) (Rabbit LDL; at 10^-6 M of compound, 1 µM): 93.1%

Compound: C=CCOc1cc(C(C)(C)C)c(O)c(C(C)(C)C)c1C [Compound v, 4-Allyloxy-2,6-Di-tert-Butyl-3-Methylphenol]
TBARS produced (%) (Rabbit LDL; at 10^-5 M of compound, 10 µM): 80.3%
TBARS produced (%) (Rabbit LDL; at 10^-6 M of compound, 1 µM): 99.3%

Compound: CC(C)(C)c1cc2c(C(C)(C)C)c(O)c(C(C)(C)C)cc2o1 [Compound t, 2,4,6-Tri-tert-Butyl-5-Hydroxybenzofuran]
TBARS produced (%) (Rabbit LDL; at 10^-5 M of compound, 10 µM): 68.0%
TBARS produced (%) (Rabbit LDL; at 10^-6 M of compound, 1 µM): 81.7%

Chemiluminescence intensity (% of control) ([1]; at 20 μM of compound): 83.1 % of control
Chemiluminescence intensity (% of control) ([1]; at 200 μM of compound): 89.8 % of control
Compound: CC(C)(C)c1cc2c(c(C(C)(C)C)c1O)CC1(CCCC1)O2 [Compound m, 4,6-Di-tert-Butyl-5-Hydroxy-2,3-Dihydrobenzofuran-2-Spiro-1'-Cyclopentane]
TBARS produced (%) (Rabbit LDL; at 10^-5 M of compound, 10 µM): 11.8%
TBARS produced (%) (Rabbit LDL; at 10^-6 M of compound, 1 µM): 85.3%
IC50 [2]: 7 µM

Chemiluminescence intensity (% of control) ([1]; at 20 μM of compound): 100.3 % of control
Chemiluminescence intensity (% of control) ([1]; at 200 μM of compound): 104.9 % of control
Compound: CC(C)(C)c1cc2c(c(C(C)(C)C)c1O)CC1(CCCCC1)O2 [Compound n, 4,6-Di-tert-Butyl-5-Hydroxy-2,3-Dihydrobenzofuran-2-Spiro-1'-cyclohexane]
TBARS produced (%) (Rabbit LDL; at 10^-5 M of compound, 10 µM): 15.6%
TBARS produced (%) (Rabbit LDL; at 10^-6 M of compound, 1 µM): 76.2%
IC50 [2]: 9 µM

From patent US5574178A, “4,6-Di-t-butyl-dihydrobenzofuran-5-ol and its derivatives” (Chugai Seiyaku Kabushiki Kaisha, priority 1992, dated 1996)
